Experimental data reported in US12459951B2, “Compounds that interact with RAS superfamily proteins for treatment of cancers, inflammatory diseases, rasopathies, and fibrotic disease” (SHY Therapeutics, LLC, priority 2022, dated 2025).

Legend:
[1] = tested on: MiaPaca-2 (expressing KRAS G12C mutant); assay: Proliferation Assay (Cell Viability Assay); format: cell-based; settings: Homo sapiens, MIA PaCa-2; read-out: Proliferation in MiaPaca-2: IC50
Experimental: Protocol for Proliferation Assay
This assay is referred to as the “Proliferation Assay” or “Cell Viability Assay” throughout this application.
Cell lines: Human tumor-derived cell lines were purchased from American Type Culture Collection. Human tumor-derived pancreatic cancer cell line MiaPaca-2 (expressing KRAS G12C mutant) and Panc-1 (expressing KRas G12D mutant), and Human non-small cell lung cancer (NSCLC) cell line A549 (expressing KRas G12S mutant) were grown in complete DMEM-High Glucose medium. Human colon cancer cell line SW-620 (expressing KRas G12V mutant) was grown in RPMI 1640 medium. All cell lines were supplemented with penicillin (100 U/mL), streptomycin (100 μg/mL), and 10% heat-inactivated FBS at 37° C. in a humidified incubator with 5% CO2.
(§1) Method: Cells were plated at 2000 to 5000 cells/well density in 96-wells plate and cultured overnight. Small molecules to be tested were added to the cells in the final concentration of 10 μM in the presence of 0.3% DMSO and 10% FBS and incubated for 2-4 days at 37° C. in a humidified incubator with 5% CO2. For IC50 value determination, serial dilutions of compounds were added to cells under the same conditions.
Assay: At the end of the incubation period, cell viability was determined using the CellTiter 96® Aqueous One Solution Cell Proliferation Assay according to manufacturer specifications (Promega, Madison, WI). The percentage of small molecules inhibition of cellular proliferation was calculated from raw data.
Cell lines: these Human tumor-derived cell lines were purchased from American Type Culture Collection. Human tumor-derived pancreatic cancer cell line MiaPaca-2 (expressing KRAS G12C mutant) and Panc-1 (expressing KRas G12D mutant), and Human non-small cell lung cancer (NSCLC) cell line A549 (expressing KRas G12S mutant), and Human melanoma cell line A375 (wild type Kras) were grown in complete DMEM-High Glucose medium. Human tumor-derived pancreatic cancer cell lines SU86.86 (expressing KRas G12D mutant), BxPC3 (expressing wild type K-Ras), and Human non-small cell lung cancer (NSCLC) cell lines NCI-H441 (expressing KRas G12S mutant), NCI-H1975 (expressing wild type KRas), NCI-H358 (expressing KRas G12C mutant), NCI-H1299 (expressing NRas Q61H mutant), and Human colon cancer cell line SW-620 (expressing KRas G12V mutant), Human triple negative breast cancer cell line HCC-1806 (expressing wild type KRas), and Human tumor-derived multiple myeloma cell line MM.1R (expressing wild type KRAS), were grown in RPMI 1640 medium. Human tumor-derived breast cancer cell line BT-549 (expressing wild type KRAS) was grown in RPMI 1640 medium in the presence of 11.8U insulin. Human tumor-derived pancreatic cancer cell line HPAF-II (expressing KRas G12D mutant), Human triple negative breast cancer cell line BT-20 (expressing wild type KRas), and Human colon cancer cell line LS123 (expressing KRas G12S mutant), were grown in EMEM medium. Human tumor-derived pancreatic cancer cell line CF-PAC1 (expressing KRas G12V mutant) was frown in IMDM medium, and Human colon cancer cell line HT29 (expressing wild type KRas) was grown in McCoy's 5A medium. The colon cancer cell line GP2d (expressing KRas G12D mutant) was purchased from MilliporeSigma and grown in DMEM-High Glucose medium. All cell lines were supplemented with penicillin (100 U/mL), streptomycin (100 μg/mL), and 10% heat-inactivated FBS at 37° C. in a humidified incubator with 5% CO2.
as §1, with “that were” for “to be”, “FBS,” for “FBS”

KRas G12D mutant = assay: Ras GTP Binding Domain Inhibition Assay (Ras Superfamily Assay); settings: 20 μM compound; for KRas G12D mutant + SOS: % inh.: with SOS; for KRas G12D mutant: % inh.: without SOS
Source text: (§2) Biological Example 3: Ras GTP Binding Domain Inhibition Assay
(§3) The assays described in Example 3 are collectively referred to as the “Ras Superfamily Assay” throughout this application.
(§4) A Ras Superfamily Activity Assay (as disclosed in International Application No. PCT/US2018/038613, filed Jun. 20, 2018, which is incorporated by reference in its entirety) was used as a specific assay to evaluate compounds against the following for the following Ras Superfamily proteins: KRas wild type, KRas Q61H mutant, KRas G12C mutant, KRas G12D mutant, Rac-1, and Rho-A.
(§5) • 25 mM Tris-HCl, pH 7.4 • 27 mM KCl • 137 mM NaCl • 1 mM MgCl2 • 1 mM DTT Buffer-II: • 50 mM Tris-HCl, pH 7.0 • 1 mM MgCl2 • 1 mM DTT
(§6) The small GTPases proteins: KRas wild type. KRas Q61H mutant, KRas G12C mutant, KRas G12D mutants, Rac-1, and Rho-A were expressed as His-tagged proteins. In addition, the Guanosine nucleotide Exchange Factor (GEF) Sos protein (residues 556-1049) was expressed as a His-tagged protein. In cells, the guanine nucleotide exchange factor Sos protein promotes activation of Ras proteins by stimulating an exchange of GDP for GTP. The inclusion of Sos to the Ras GTP binding domain inhibition assay may be considered as an alternative representation of physiological cellular conditions for evaluating the inhibitory activity of some of the tested small molecules.
(§7) For the assay, all purified small GTPases proteins were diluted in Buffer-I or Buffer-II to a final concentration of 10-30 μg/mL. 200 μL of each diluted protein was added to a nickel-coated 96-well plate and incubated overnight at 4° C. Then the protein solution was discarded and 200 μL of Buffer-I or Buffer-II was added to each well in the presence of 1% DMSO. Compounds to be tested were added to the protein-coated wells at final concentration of 20 μM, and incubated for 3 hours at room temperature with and without 10-30 μg/mL of Sos added to the final hour of the incubation. When performing IC50 measurements a serial dilution of all tested concentrations was added. Then Cy3-GTP or Cy5-GTP was added to each well to a final concentration of 100 nM. The labeled GTP was incubated for 45 minutes at room temperature. Following GTP incubation, wells were washed 3× in Buffer-I or Buffer-II and 200 μL of Buffer-I or Buffer-II was added to each well. Following washes, the amount of bound labeled-GTP was measured using a SpectraMax M3 (Molecular Devices).

KRas wild type = assay: as above; settings: 20 μM compound; for KRas wild type + SOS: % inh.: with SOS; for KRas wild type: % inh.: without SOS
Source text: as §2, §3, §4, §5, §6, §7

Rac-1 = target: T1, Rac-1 (Homo sapiens, UniProt P63000); assay: as above; settings: read-out: Rac-1: % inh.
T1 construct: made in house
Source text: as §2, §3, §4, §5, §6, §7

SMILES | IC50 [1] | KRas G12D mutant + SOS: % inh. (KRas G12D mutant) | KRas G12D mutant: % inh. (KRas G12D mutant) | KRas wild type + SOS: % inh. (KRas wild type) | KRas wild type: % inh. (KRas wild type) | inhibition at 20 µM (Rac-1)
CO[C@H]1CC[C@@H](Nc2nc(-c3ccccn3)nn3cc(-c4ccn(C(C)C)n4)c(C)c23)C1 (racemic) [Compound 9, rac 6-(1-Isopropyl-1H-pyrazol-3-yl)-N-((1R,3S)-3-methoxycyclopentyl)-5-methyl-2-(pyridin-2-yl)pyrrolo[2,1-f][1,2,4]triazin-4-amine] | > 1000 nM | 0 (0 = 0% inhibition) | 0 (0 = 0% inhibition) | 0 (0 = 0% inhibition) | 0 (0 = 0% inhibition) | 0%
CO[C@@H]1CC[C@@H](Nc2nc(-c3nccn3C)nn3cc(-c4ccn(C)n4)c(C)c23)C1 (racemic) [Compound 132, rac N-((1R,3R)-3-Methoxycyclopentyl)-5-methyl-2-(1-methyl-1H-imidazol-2-yl)-6-(1-methyl-1H-pyrazol-3-yl)pyrrolo[2,1-f][1,2,4]triazin-4-amine] | > 1000 nM | A (A = 1-25% inhibition) | B (B = 26-49% inhibition) | 0 (0 = 0% inhibition) | B (B = 26-49% inhibition) | 1 to 25%
CO[C@@H]1CC[C@@H](Nc2nc(-c3nccn3C)nn3cc(-c4cccnc4)c(C)c23)C1 (racemic) [Compound 154, rac N-((1R,3R)-3-methoxy-cyclopentyl)-5-methyl-2-(1-methyl-1H-imidazol-2-yl)-6-(pyridin-3-yl)pyrrolo[2,1-f][1,2,4]triazin-4-amine] | > 1000 nM | D (D = 76-100% inhibition) | D (D = 76-100% inhibition) | B (B = 26-49% inhibition) | B (B = 26-49% inhibition) | 50 to 75%
COc1cc(-c2cn3nc(-c4nccn4C)nc(N[C@@H]4CC[C@@H](OC)C4)c3c2C)ccn1 (racemic) [Compound 163, rac N-((1R,3R)-3-Methoxycyclopentyl)-6-(2-methoxypyridin-4-yl)-5-methyl-2-(1-methyl-1H-imidazol-2-yl)pyrrolo[2,1-f][1,2,4]triazin-4-amine] | > 1000 nM | 0 (0 = 0% inhibition) | 0 (0 = 0% inhibition) | 0 (0 = 0% inhibition) | 0 (0 = 0% inhibition) | 0%
COc1cc(-c2cn3nc(-c4nccn4C)nc(N[C@@H]4CC[C@H](OC)C4)c3c2C)ccn1 (racemic) [Compound 164, rac N-((1R,3S)-3-Methoxycyclopentyl)-6-(2-methoxypyridin-4-yl)-5-methyl-2-(1-methyl-1H-imidazol-2-yl)pyrrolo[2,1-f][1,2,4]triazin-4-amine] | > 1000 nM | 0 (0 = 0% inhibition) | A (A = 1-25% inhibition) | A (A = 1-25% inhibition) | A (A = 1-25% inhibition) | 1 to 25%
Cc1c(-c2ccn(C3CC3)n2)cn2nc(-c3nccn3C)nc(Nc3cc(OCCCN(C)C)ccn3)c12 [Compound 148, 6-(1-Cyclopropyl-1H-pyrazol-3-yl)-N-(4-(3-(dimethylamino)propoxy)pyridin-2-yl)-5-methyl-2-(1-methyl-1H-imidazol-2-yl)pyrrolo[2,1-f][1,2,4]triazin-4-amine] | > 1000 nM | – | – | – | – | 0%

Continued, values first:

IC50 [1] | KRas G12D mutant + SOS: % inh. (KRas G12D mutant) | KRas G12D mutant: % inh. (KRas G12D mutant) | KRas wild type + SOS: % inh. (KRas wild type) | KRas wild type: % inh. (KRas wild type) | inhibition at 20 µM (Rac-1) | SMILES
> 1000 nM | 0 (0 = 0% inhibition) | B (B = 26-49% inhibition) | 0 (0 = 0% inhibition) | A (A = 1-25% inhibition) | 1 to 25% | CO[C@H]1CC[C@@H](Nc2nc(-c3nccn3C)nn3cc(-c4ccn(C)n4)c(C)c23)C1 (racemic) [Compound 133, rac N-((1R,3S)-3-Methoxycyclopentyl)-5-methyl-2-(1-methyl-1H-imidazol-2-yl)-6-(1-methyl-1H-pyrazol-3-yl)pyrrolo[2,1-f][1,2,4]triazin-4-amine]
> 1000 nM | A (A = 1-25% inhibition) | A (A = 1-25% inhibition) | A (A = 1-25% inhibition) | A (A = 1-25% inhibition) | 1 to 25% | CO[C@H]1CC[C@@H](Nc2nc(-c3nccn3C)nn3cc(-c4cccnc4)c(C)c23)C1 (racemic) [Compound 155, rac N-((1R,3S)-3-methoxy-cyclopentyl)-5-methyl-2-(1-methyl-1H-imidazol-2-yl)-6-(pyridin-3-yl)pyrrolo[2,1-f][1,2,4]triazin-4-amine]
> 1000 nM | – | – | – | – | 0% | Cc1c(-c2ccn(C3CC3)n2)cn2nc(-c3nccn3C)nc(Nc3cc(OCCN(C)C)ccn3)c12 [Compound 147, 6-(1-Cyclopropyl-1H-pyrazol-3-yl)-N-(4-(2-(dimethylamino)ethoxy)pyridin-2-yl)-5-methyl-2-(1-methyl-1H-imidazol-2-yl)pyrrolo[2,1-f][1,2,4]triazin-4-amine]
